Test results published in publication PMC8245773, “Brevibacillin 2V, a Novel Antimicrobial Lipopeptide With an Exceptionally Low Hemolytic Activity” (Frontiers in Microbiology, 2021).
Values belong to the molecule of their own block, whether it stands above or below them. *1 amine or outer side, *2 acyl side, *3 side chain or, on linkers, in order; H or OH if unused. Where a SMILES comes first, the peptide text is derived from it. [ ]: non-standard residue; d: D form. The star is where a group is joined. X2 = CC=C(N[*:1])C(=O)[*:2]; dOrn = NCCC[C@@H](N)C(=O)O; Valol = CC(C)[C@@H](CO)N*; X1 = CCC(C)C(O)C(=O)*

Legend:
[1] = test system: HepG2 cells; conditions: for HepG2 CC50: 24 h
Method: The cytotoxicity of brevibacillins was evaluated on HepG2 cells by using the XTT (Cell Proliferation Kit XTT, AppliChem) assay ([Roehm et al., 1991]). HepG2 cells [in Dulbecco’s modified Eagle’s medium (DMEM) supplemented with 10% fetal bovine serum] were seeded into 96-well plates and incubated at 37°C with 5% CO2. After 24 h, the medium was replaced with a fresh medium (DMEM with 2% FBS, 100 μl per well) containing different concentrations of brevibacillins ([Zhao et al., 2017]). After 24 h of incubation, the XTT reagent was added to the cultures according to the manufacturer’s instructions, and the plates were incubated at 37°C for 2 h with 5% CO2. Subsequently, the absorbance values were measured by using a Varioskan^TM LUX multimode microplate reader (Thermo Fisher Scientific) at 485 nm (reference, 690 nm). The 50% cell toxicity (CC50) of peptides was calculated as described in a previous study ([Reed and Muench, 1938]).
(§1) GraphPad Prism 7.0 was used to fit the data of hemolytic assay and cytotoxicity assay in Figure 3. The experiments were conducted in triplicate, and data are presented as the mean value of triplicate experiments. Data Explorer Software was used to analyze the MALDI-TOF data; Thermo Scientific Xcalibur software was used to analyze the LC–MS/MS data. The statistical significance of the data was assessed using Duncan’s multiple-range test with the software SPSS Statistics 19.0. P-values less than 0.05 were considered to be statistically significant.

[2] = test system: human erythrocytes; assay: Hemolytic activity
Method: This assay was performed as per the method described in previous studies ([Ling et al., 2015]; [Li et al., 2018]). Briefly, erythrocytes were isolated from a healthy human volunteer donor (ordered from Sanquin, Netherlands^1) and washed with phosphate-buffered saline (PBS) three times. After that, peptides were added at final concentrations of 128, 64, 32, 16, 8, 4, 2, 1, and 0 mg/L in PBS containing 2% (v/v) erythrocytes. The cells were incubated at 37°C for 1 h and centrifuged for 5 min at 8,000 g. The supernatant was transferred to a 96-well plate, and the absorbance was measured at a wavelength of 450 nm with a Thermo Scientific Varioskan^TM LUX multimode microplate reader. The absorbance relative to the positive control, which was treated with 10% Triton X-100, was defined as the percentage of hemolysis. The 50% human blood cell hemolysis concentration (HC50) of peptides was calculated as described in previous studies ([Reed and Muench, 1938]).
as §1

[3] = test system: K. pneumoniae LMG20218; assay: Synergy assay, checkerboard method; conditions: checkerboard, 5 × 10^5 cfu/ml, 37°C, 20 h, antibiotic alone
Method: (§2) Briefly, antibiotics were diluted in twofold series, while brevibacillins were added at a certain final concentration of 1, 2, or 4 mg/L. Indicator strains were added at a final concentration of 5 × 10^5 cfu/ml. After incubation at 37°C for 20 h, the OD600 of plates was determined. The fractional inhibitory concentration index (FICI) was calculated using the following formula: FICI = (MIC compound A in combination with B / MIC compound A) + (MIC compound B in combination with A / MIC compound B).

[4] = test system: E. coli ATCC 25922; assay: Synergy assay, checkerboard method; conditions: for FICI: synergistic ≤0.5;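 on all read-outs here: growth read as OD600 in microplates, with antibiotics tested across twofold serial dilutions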
Method: as §2

[5] = test system: P. aeruginosa LMG6395; assay: Synergy assay, checkerboard method; conditions: for FICI: synergistic ≤0.5;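 on all read-outs here: antibiotics tested in twofold serial dilutions, with inhibition judged from plate OD600 readings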
Method: as §2

[6] = test system: A. baumannii ATCC17978; assay: Synergy assay, checkerboard method; conditions: A. baumannii ATCC17978; for FICI: synergistic ≤0.5
Method: as §2

[7] = checkerboard, 5 × 10^5 cfu/ml, 37°C, 20 h, E.coli ATCC 25922, antibiotic alone
[8] = checkerboard, 5 × 10^5 cfu/ml, 37°C, 20 h, antibiotic alone

SMILES: CC=C(NC(=O)C(O)C(C)CC)C(=O)N[C@@H](CC(C)C)C(=O)N[C@H](CCCN)C(=O)N[C@H](C(=O)N[C@H](C(=O)N[C@H](C(=O)N[C@H](CCCCN)C(=O)N[C@H](C(=O)N[C@H](C(=O)N[C@@H](CCCCN)C(=O)N[C@H](Cc1ccc(O)cc1)C(=O)N[C@@H](CC(C)C)C(=O)N[C@H](CO)C(C)C)C(C)C)[C@@H](C)CC)C(C)C)[C@@H](C)CC)[C@@H](C)CC (stereo partly drawn) [brevibacillin I] (X1-[X2]L[dOrn]IIV[dK]IVK[dY]L-Valol)
CC50 (HepG2) relative to MIC values against bacterial pathogens [1]: 2.5- to fivefold
cytotoxicity to HepG2 cells at 16 mg/L [1]: all of the HepG2 cells were killed
HepG2 CC50 [1]: 7.38 ± 0.30 µg/mL
hemolytic activity at 64 mg/L [2]: completely lysed

MIC of antibiotic at brevibacillin 0 mg/L [3]: 64 µg/mL
MIC of antibiotic at brevibacillin 2V 0 mg/L [3]: 64 µg/mL
MIC of antibiotic at brevibacillin I 0 mg/L [3]: 64 µg/mL
MIC of antibiotic at brevibacillin V 0 mg/L [3]: 64 µg/mL
MIC of antibiotic at brevibacillin 0 mg/L [4, 7]: 4 µg/mL
MIC of antibiotic at brevibacillin 2V 0 mg/L [4, 7]: 4 µg/mL
MIC of antibiotic at brevibacillin I 0 mg/L [4, 7]: 4 µg/mL
MIC of antibiotic at brevibacillin V 0 mg/L [4, 7]: 4 µg/mL
MIC of antibiotic at brevibacillin 0 mg/L [5, 8]: 32 µg/mL
MIC of antibiotic at brevibacillin 2V 0 mg/L [5, 8]: 32 µg/mL
MIC of antibiotic at brevibacillin I 0 mg/L [5, 8]: 32 µg/mL
MIC of antibiotic at brevibacillin V 0 mg/L [5, 8]: 32 µg/mL
MIC of antibiotic at brevibacillin 0 mg/L [6, 8]: 32 µg/mL
MIC of antibiotic at brevibacillin 2V 0 mg/L [6, 8]: 32 µg/mL
MIC of antibiotic at brevibacillin I 0 mg/L [6, 8]: 32 µg/mL
MIC of antibiotic at brevibacillin V 0 mg/L [6, 8]: 32 µg/mL
SMILES: CO[C@H]1/C=C/O[C@@]2(C)Oc3c(C)c(O)c4c(O)c(c(/C=N/N5CCN(C)CC5)c(O)c4c3C2=O)NC(=O)/C(C)=C\C=C\[C@H](C)[C@H](O)[C@@H](C)[C@@H](O)[C@@H](C)[C@H](OC(C)=O)[C@@H]1C [Rifampicin]
FICI ([4]; antibiotic + brevibacillin 2V, E. coli ATCC 25922): 0.313
FICI ([4]; antibiotic + brevibacillin I, E.coli ATCC 25922): 0.531
FICI ([4]; antibiotic + brevibacillin V, E.coli ATCC 25922): 0.375
FICI ([4]; antibiotic + brevibacillin, E.coli ATCC 25922): 0.250
FICI ([5]; antibiotic + brevibacillin 2V): 0.516
FICI ([5]; antibiotic + brevibacillin I): 0.516
FICI ([5]; antibiotic + brevibacillin V): 0.516
FICI ([5]; antibiotic + brevibacillin): 0.281
FICI ([6]; antibiotic + brevibacillin 2V): 0.375
FICI ([6]; antibiotic + brevibacillin I): 0.516
FICI ([6]; antibiotic + brevibacillin V): 0.516
FICI ([6]; antibiotic + brevibacillin): 0.281

SMILES: CC=C(NC(=O)C(O)C(C)CC)C(=O)N[C@@H](CC(C)C)C(=O)N[C@H](CCCN)C(=O)N[C@H](C(=O)N[C@H](C(=O)N[C@H](C(=O)N[C@H](CCCCN)C(=O)N[C@H](C(=O)N[C@H](C(=O)N[C@@H](CCCCN)C(=O)N[C@H](Cc1ccc(O)cc1)C(=O)N[C@@H](CC(C)C)C(=O)N[C@H](CO)C(C)C)C(C)C)C(C)C)C(C)C)[C@@H](C)CC)[C@@H](C)CC (stereo partly drawn) [brevibacillin] (X1-[X2]L[dOrn]IIV[dK]VVK[dY]L-Valol)
CC50 (HepG2) relative to MIC values against bacterial pathogens [1]: 2.5- to fivefold
cytotoxicity to HepG2 cells at 16 mg/L [1]: all of the HepG2 cells were killed
HepG2 CC50 [1]: 5.21 ± 0.01 µg/mL
hemolytic activity at 64 mg/L [2]: completely lysed
HC50 (concentration that causes 50% hemolysis of human red blood cells) ([2]; red cells of human, 1 h): 25.1 ± 0.1 mg/L
